Consider three compounds from patent publication US20260085069A1, “PRODRUGS” (Cambridge Enterprise Limited, priority 2022, published 2026).

Structures are written as SMILES. Values after ≈ are worked out from the molar mass of the structure shown.

The format of data set [1] is in vitro ADME. As to conditions: rat plasma, 37° C. The protocol: 5 μL of a 10 mM stock solution of the Examples were dissolved in 495 μL DMSO to afford 500 μL working solution Assay procedure:
98 μL plasma was added to each well of a 96-well reaction plate, using one plate per timepoint (Blank, TO, T10, T30, T60, and T120). 2 μL of working solution was added to each well of the reaction plates except Blank. Each plate was incubated at 37° C. for the indicated timepoint (0, 10, 30, 60, 120 minutes). At the end of incubation, 400 μL of stop solution (200 ng/mL tolbutamide and 200 ng/mL labetalol in 0.1% FA in ACN) was added to precipitate protein. The plates were then sealed and shaken for 20 minutes before centrifugation at 4000 rpm for 20 minutes. […] Formation of parent was also monitored as a metabolite.

Data set [2] is described as follows: Stability in aqueous media (FaSSIF, SGF, PBS). It counts as physicochemical. As to conditions: for FaSSIF (pH 6.5) % remaining 1 h / FaSSIF (pH 6.5) % remaining 6 h / FaSSIF (pH 6.5) % remaining 24 h: FaSSIF pH 6.5, 37° C.; for PBS (pH 7.4) % remaining 1 h / PBS (pH 7.4) % remaining 6 h / PBS (pH 7.4) % remaining 24 h: PBS pH 7.4, 37° C.; for SGF (pH 1.2) % remaining 1 h / SGF (pH 1.2) % remaining 6 h / SGF (pH 1.2) % remaining 24 h: SGF pH 1.2, 37° C. The procedure: 10 μL of a 10 mM stock solution of the Examples were dissolved in 490 μL DMSO to afford […] working solution SGF (pH 1.2):
Dissolve 0.04 g NaCl and 0.064 g pepsin in 0.14 mL HCl and add sufficient water to 20 mL volume. The pH of the test solution was 1.20±0.05.
0.056% (w/v) lecithin, 0.161% (w/v) sodium taurocholate, 0.39% (w/v) monobasic potassium phosphate, 0.77% (w/v) potassium chloride, deionized H2O. The pH of the test solution was 6.5±0.05.
30 mL of 10×PBS (pH7.4) was added into a 50 mL flask and diluted with water. The solution was mixed well and adjusted to pH 7.4 with 1 N HCl.
2 μL of the 200 μL working solution of the Examples was added into 96-deep-well plates for TO, T60, T120, T360 and T1440 timepoints. Duplicates were prepared.
Stability studies were commenced by the addition of 198 μL of the required media (e.g. Simulated Gastric Fluid pH 1.2 [SGF], Simulated Fasted State Intestinal Fluid pH 6.5 [FaSSIF]) and Phosphate Buffered Saline pH 7.4 [PBS]) to each well except TO. The samples were incubated at 37° C. at 600 rpm for the appointed time. The samples at the corresponding timepoint were removed and immediately mixed with 400 μL of cold acetonitrile containing 200 ng/mL tolbutamide and labetalol (internal standard). The samples were centrifuged at 4000 rpm at 4° C. for 20 minutes. 60 μL of the supernatant was removed and mixed with 180 μL purified water and thoroughly mixed and analysed by LCMS (Shimadzu LC 30-AD, ACQUITY UPLC BEH Phenyl 1.7 um 2.1*50 mm Part No. 186002884, with mobile phase A: 0.1% formic acid in water, mobile phase B: 0.1% formic acid in acetonitrile). Formation of parent was also monitored as a metabolite.
Samples were analysed by Mass Spectrometry QTRAP 6500+.

Data set [3] in a line: Solubility in simulated fluids (kinetic solubility, 24 hours). The data set is classed as physicochemical. As to conditions: thermodynamic from solid, 24 hour timepoint, room temperature. The protocol: A known quantity of the Examples and control compounds were weighed into a suitable vessel (whatman miniuniprep vials) and a known volume of the required media was added (e.g. Simulated Gastric Fluid pH 1.2 [SGF], Simulated Fasted State Intestinal Fluid pH 6.5 [FaSSIF] or Phosphate Buffered Saline pH 7.4 [PBS]). The samples were subjected to vortex mixing for 2 minutes followed by agitation on a shaker for 24 hours at room temperature at 800 rpm.

The nature of a further data set: in vitro. As to conditions: rat intestinal microsomes, NADPH, 37° C. The data set is classed as in vitro ADME. The protocol:
5 μL of a 10 mM stock solution of the Examples were dissolved in 495 μL acetonitrile to afford 500 μL working solution.
The appropriate amount of β-Nicotinamide adenine dinucleotide phosphate reduced form, tetrasodium salt; NADPH-4Na (NADPH) powder was weighed and diluted into a 10 mM MgCl2 solution (working solution concentration: 10 unit/mL; final concentration in reaction system: 1 unit/mL).
The appropriate concentrations of rat intestinal microsome (Xenotech, cat. No R1000.1) working solutions were prepared in 100 mM potassium phosphate buffer.
Cold (4° C.) acetonitrile (ACN) containing 200 ng/mL tolbutamide and 200 ng/mL labetalol as internal standards (IS).
Incubation plates were pre-incubated for 10 minutes at 37° C. with constant shaking. 54 μL was transferred from Incubation plates into a blank plate and then 6 μL NADPH cofactor and 180 μL quenching solution was added to the Incubation plates. 5 μL Example working solution (100 μM) was also added to the Incubation plates and mixed thoroughly.
The T60 Incubation plate was mixed thoroughly and for the 0-min timepoint, 54 μL was transferred into a Quenching plate (containing 180 μL quenching solution and 6 μL NADPH cofactor). 44 μL NADPH cofactor was then added to the T60 Incubation plate and incubated at 37° C. for 60 min while shaking. At 5, 15, 30, 45, and 60 min, 60 μL samples were transferred from T60 Incubation plate into a Quenching plate (containing 180 μl quenching solution). For the NCF60 Incubation plate, 50 μL of buffer was added and mixed thoroughly before incubation at 37° C. for 60 min while shaking, at the 60-min time point 60 μL was transferred to the Quenching plate (containing 180 μl quenching solution). All sampling plates were shaken for 10 min, then centrifuged at 4000 rpm for 20 minutes at 4° C. 80 μL supernatant was transferred into 240 μL HPLC water, and mixed for 10 min.

A short description of data set [4]: Comparative solubility data for Reference Example 1 (thermodynamic and kinetic). It counts as physicochemical.
[5] abbreviates: simulated gastric fluid, SGF (pH 1.2).

Consider `CC(=O)OCOC(=O)c1ccc2c(c1)nc(OCCOCCCCNCc1cc(F)c(OC(F)(F)F)c(F)c1)c1ccncc12` [Example 10, acetoxymethyl 5-(2-(4-((3,5-difluoro-4-(trifluoromethoxy)benzyl)amino)butoxy)ethoxy)benzo[c][2,6]naphthyridine-8-carboxylate], for which, in data set [1], the “% Example remaining 0 min” value is 100.0%, the “Example concentration (nM) 0 min” value is 2023.5 nM, the “% Example remaining 10 min” value is 0.1% and the “Example concentration (nM) 10 min” value was 2.1 nM. In addition, in data set [2], the “FaSSIF (pH 6.5) % remaining 1 h” value is given as 101.7%, the “FaSSIF (pH 6.5) % remaining 6 h” value was determined as 97.1%, the “FaSSIF (pH 6.5) % remaining 24 h” value came to 104.4% and the “PBS (pH 7.4) % remaining 1 h” value is listed as 78.8%. Besides, in data set [2], the “PBS (pH 7.4) % remaining 6 h” value is 7.1%, the “PBS (pH 7.4) % remaining 24 h” value came to 1.1%, the “SGF (pH 1.2) % remaining 1 h” value came out at 101.5% and the “SGF (pH 1.2) % remaining 6 h” value turned out to be 55.9%. Moreover, the “SGF (pH 1.2) % remaining 24 h” value in data set [2] stood at 10.1%. For the same compound, the solubility (kinetic) at 24 h in data set [3] (setting [5]) is 0.0209 mg/mL (≈ 32.8 µM). The solubility (kinetic) at 24 h in data set [3] (FaSSIF (pH 6.5)) was 0.0913 mg/mL (≈ 143 µM). Further, in the data set “in vitro”, the “CIint(mic)” value came to 61.8 µL/min/mg and the half-life at 1 µM came to 37.4 min.
In the case of `CCOC(=O)OCOC(=O)c1ccc2c(c1)nc(OCCOCCCCNCc1cc(F)c(OC(F)(F)F)c(F)c1)c1ccncc12` [Example 13, ((ethoxycarbonyl)oxy)methyl 5-(2-(4-((3,5-difluoro-4-(trifluoromethoxy)benzyl)amino)butoxy)ethoxy)benzo[c][2,6]naphthyridine-8-carboxylate], in data set [1], the “% Example remaining 0 min” value stood at 100.0%, the “Example concentration (nM) 0 min” value is listed as 1601.0 nM, the “% Example remaining 10 min” value stood at 0.1% and the “Example concentration (nM) 10 min” value turned out to be 1.6 nM. Also, in data set [2], the “FaSSIF (pH 6.5) % remaining 1 h” value was found to be 106.5%, the “FaSSIF (pH 6.5) % remaining 6 h” value came to 99.8%, the “FaSSIF (pH 6.5) % remaining 24 h” value is 96.8% and the “PBS (pH 7.4) % remaining 1 h” value is listed as 84.3%. Further, in data set [2], the “PBS (pH 7.4) % remaining 6 h” value amounted to 17.5%, the “PBS (pH 7.4) % remaining 24 h” value is reported as 20.5%, the “SGF (pH 1.2) % remaining 1 h” value came to 106.8% and the “SGF (pH 1.2) % remaining 6 h” value came to 63.6%. Moreover, the “SGF (pH 1.2) % remaining 24 h” value in data set [2] was determined as 21.5%. Moreover, in data set [3] (setting [5]), the solubility (kinetic) at 24 h is 0.0178 mg/mL (≈ 26.7 µM). Moreover, the kinetic solubility at 24 h in data set [3] (FaSSIF (pH 6.5)) was 0.098 mg/mL (≈ 147 µM). For the same compound, in “in vitro”, the “CIint(mic)” value worked out at 126.2 µL/min/mg and the half-life at 1 µM was 18.3 min.
As for `O=C(O)c1ccc2c(c1)nc(OCCOCCCCNCc1cc(F)c(OC(F)(F)F)c(F)c1)c1ccncc12` [Reference Example 1, 5-(2-(4-((3,5-difluoro-4-(trifluoromethoxy)benzyl)amino)butoxy)ethoxy)benzo[c][2,6]naphthyridine-8-carboxylic acid], the solubility in data set [4] (aqueous buffer, kinetic from dmso stock, kinetic, phosphate buffer, initial pH 7.4) is 0.031 mg/mL (≈ 54.8 µM); in data set [4] (aqueous buffer, thermodynamic from solid, thermodynamic, phosphate buffer, initial pH 1.0) it was 0.256 mg/mL (≈ 453 µM); in data set [4] (aqueous buffer, thermodynamic from solid, thermodynamic, phosphate buffer, initial pH 7.4) it was under 0.0009 mg/mL; in data set [4] (aqueous buffer, thermodynamic from solid, thermodynamic, phosphate buffer, initial pH 10.0), under 0.0009 mg/mL; in data set [4] (thermodynamic from solid, thermodynamic, FaSSIF, initial pH 6.5), 0.0016 mg/mL (≈ 2.83 µM).

By kinetic solubility is commonly meant solubility judged after dilution from a stock solution rather than from solid. By half-life is commonly meant how long it takes for the measured level to halve. Higher therefore signals slow decline. Usually solubility stands for the concentration that dissolves in the medium under given conditions. Read a low solubility as little dissolved substance.
